Results: US20240369544A1, “MULTIVALENT GLYCAN SCAFFOLDS AND METHODS OF USE THEREOF” (NovAb, Inc., priority 2021, published 2024)
Where no end group is shown, it is not given here. The star is where a group is joined. αGalNAc = CC(=O)N[C@@H]1[C@@H](O)[C@@H](O)[C@@H](CO)O[C@@H]1*; GalNAcα = O-linked α-N-acetylgalactosamine

What was measured:
[1] = tested on: O13 YSD cells (yeast cells expressing the lamprey O13 VLRB anti-H3 antibody on their surface); type: binding
Description: The O13 YSD cells were then washed 3 times with ice-cold TSM-BSA, then resuspended in 250 μL TMS-BSA to which 1 μL of PI was added to stain live/dead cells. 125 μL of each sample were used for flow cytometry measurements.

anti-H3 antibody = experiment: Dissociation constant of monomer H3:anti-H3 antibody interaction; type: binding
[2] = target: T1, Peanut agglutinin lectin (PNA) (Arachis hypogaea, UniProt P02872); experiment: Lectin assay of dendrimers on magnetic beads, PNA; type: binding; conditions: dendrimers coupled to streptavidin magnetic beads; lectin at 2 μg/mL pre-complexed with Avidin-HRP
T1 sequence (P02872 whole entry, looked up): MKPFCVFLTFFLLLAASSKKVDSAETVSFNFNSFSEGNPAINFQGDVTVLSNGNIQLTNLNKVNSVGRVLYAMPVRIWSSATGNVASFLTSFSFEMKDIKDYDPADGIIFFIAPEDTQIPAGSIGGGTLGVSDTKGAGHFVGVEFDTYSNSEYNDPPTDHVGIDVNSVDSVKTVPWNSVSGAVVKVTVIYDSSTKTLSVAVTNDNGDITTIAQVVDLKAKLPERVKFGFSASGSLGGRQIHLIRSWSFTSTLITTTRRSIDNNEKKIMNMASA
Description: (§1) The Avidin-HRP was purchased from SouthemBiotech. […] 3 μL of dendrimer beads were used per assay.

[3] = tested on: Vicia Villosa lectin (VVL); experiment: Lectin assay of dendrimers on magnetic beads, VVL; type: binding; conditions: dendrimers coupled to streptavidin magnetic beads; lectin at 2 μg/mL pre-complexed with Avidin-HRP
Description: as §1

[4] = target: T2, Peanut agglutinin lectin (PNA), biotinylated, Vector Laboratories (Peanut, UniProt P02872 24-259, limits assumed, biotinylated (sites not given)); experiment: lectin assay: dendrimer on streptavidin magnetic beads, biotinylated lectin pre-complexed with Avidin-HRP, TMB read-out
T2 construct: Lectin, described as specific for galactose as found in T-antigen; It was pre-complexed with Avidin-HRP for the assay
T2 sequence (looked up): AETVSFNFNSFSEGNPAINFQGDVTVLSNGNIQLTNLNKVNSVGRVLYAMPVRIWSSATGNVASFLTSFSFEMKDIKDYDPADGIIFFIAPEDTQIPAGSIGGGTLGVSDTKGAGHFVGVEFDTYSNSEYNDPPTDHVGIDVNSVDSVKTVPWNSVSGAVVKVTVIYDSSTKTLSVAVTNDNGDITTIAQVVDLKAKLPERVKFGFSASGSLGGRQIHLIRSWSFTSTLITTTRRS

CC(=O)N[C@H]1C(O)O[C@H](CO)[C@@H](O[C@@H]2O[C@H](CO)[C@H](O)[C@H](O)[C@H]2O[C@@H]2O[C@@H](C)[C@@H](O)[C@@H](O)[C@@H]2O)[C@@H]1O (stereo partly drawn) [monomer H3, Blood group H type 2 trisaccharide]
binding by O13 YSD cells (flow cytometry) [1]: not detected
Kd (anti-H3 antibody): 2000 nM
koff of monomer H3:anti-H3 antibody complex (anti-H3 antibody; from Kd=koff/kon with kon 10^6 M^−1 s^−1): 2 s⁻¹

GP100120-dendrimers: Synthetic fibroin glycopeptide GP100120 (GAT*ES*RGAGAGA-NH2, GalNAc on Ser and Thr, SEQ ID NO:5) conjugated to 8-arm-PEG-NHS compound (GAT(αGalNAc)ES(αGalNAc)RGAGAGA-NH2; also: conjugated to 8-arm-PEG-NHS (dendrimer), site not given here)
reactivity to PNA lectin [2]: negative
reactivity to VVL lectin [3]: positive

B1: GP100120-dendrimer: synthetic fibroin glycopeptide GP100120 (GAT*ES*RGAGAGA-NH2) conjugated to 8-arm-PEG-NHS (7 arms NHS, 1 arm biotin) (peptide)
peptide: GAT(GalNAcα)ESRGAGAGA-NH2
modifications: not fully specified (residue 5); printed as GAT*ES*RGAGAGA-NH2; also: coupled through a primary amine to NHS arm of 8-arm PEG (7 NHS arms, 1 biotin arm), multivalent, copy number not given here
notes: The dendrimer was captured on streptavidin magnetic beads by its biotin; also called GP100121 glycopeptide dendrimer; GP100121 dendrimer
binding result [4]: no binding (tested: 2 µg/mL)
